From patent US11142515B2, “Pyrazolyl-ureas as kinase inhibitors” (RESPIVERT LIMITED, priority 2014, dated 2021) come the findings set out here.

One assay addresses T1, p38MAPKγ (MAPK12) (Homo sapiens, UniProt P53778).
T1 construct: purchased Life Technologies
T1 sequence (P53778 1-367): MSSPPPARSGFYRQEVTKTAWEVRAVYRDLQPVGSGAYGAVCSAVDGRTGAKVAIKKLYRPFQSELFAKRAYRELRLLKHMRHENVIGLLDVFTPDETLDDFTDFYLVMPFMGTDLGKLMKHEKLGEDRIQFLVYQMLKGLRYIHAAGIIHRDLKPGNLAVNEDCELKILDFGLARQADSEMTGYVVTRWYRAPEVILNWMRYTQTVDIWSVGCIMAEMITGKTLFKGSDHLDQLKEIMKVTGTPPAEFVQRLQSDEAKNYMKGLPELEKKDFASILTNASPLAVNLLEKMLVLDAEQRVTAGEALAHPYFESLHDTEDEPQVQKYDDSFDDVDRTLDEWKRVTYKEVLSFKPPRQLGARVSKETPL
The assay can be described thus: p38 MAPKγ enzyme inhibition (Z-LYTE FRET). The class given is biochemical. The settings on record: Table 2B, unit inferred; read-out: p38 MAPKγ (Enzyme Profile). The procedure, abridged: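 Z-LYTE read-out: after 1 h protease development, only non-phosphorylated peptide is cleaved, and the donor/acceptor (coumarin/fluorescein) ratio reports phosphorylation. Beforehand, enzyme and compound (stock concentrations 0.0012–40 μg/mL) were preincubated 2 h at RT, then the kinase reaction ran 1 h at RT with peptide and ATP (8 μM and 400 μM stocks).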

In assay [1] the target is T2, p38 MAPKα isoform (MAPK14) (Homo sapiens, UniProt Q16539).
T2 construct: purchased Life Technologies
T2 sequence (Q16539 whole entry, canonical isoform): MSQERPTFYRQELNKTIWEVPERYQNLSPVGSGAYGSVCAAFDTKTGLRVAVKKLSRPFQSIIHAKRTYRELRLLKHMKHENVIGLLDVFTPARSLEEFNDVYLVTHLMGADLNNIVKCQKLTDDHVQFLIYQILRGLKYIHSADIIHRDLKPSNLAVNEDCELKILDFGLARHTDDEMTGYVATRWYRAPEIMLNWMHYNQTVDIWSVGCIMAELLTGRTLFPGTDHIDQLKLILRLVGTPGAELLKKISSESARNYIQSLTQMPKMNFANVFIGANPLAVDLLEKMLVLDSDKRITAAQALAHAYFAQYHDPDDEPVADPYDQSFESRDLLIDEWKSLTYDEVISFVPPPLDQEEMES
The assay can be described thus: p38 MAPKα enzyme inhibition (Z-LYTE FRET). The class given is biochemical. To be noted: Table 2B, unit inferred; read-out: p38 MAPKα (Enzyme Profile). In outline:
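Recombinant human MAPK14 (40 ng/mL stock) was preincubated 2 h at RT with compound (stock dilutions 0.0012-40 μg/mL). The Z-LYTE FRET read-out used a MAPKAP-K2-derived peptide, and protease development for 1 h cleaved only non-phosphorylated peptide. Phosphorylation was calculated from the coumarin/fluorescein emission ratio.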

Each structure is given as a SMILES string.

As to `Cc1ccc(-n2nc(C(C)(C)C)cc2NC(=O)Nc2ccc(OCc3ccnc(Nc4cncc(CCO)n4)c3)c3ccccc23)cc1` [Example 171, 1-(3-(tert-butyl)-1-(p-tolyl)-1H-pyrazol-5-yl)-3-(4-((2-((6-(2-hydroxyethyl)pyrazin-2-yl)amino)pyridin-4-yl)methoxy)naphthalen-1-yl)urea], the IC50 on p38MAPKγ (MAPK12) is 49 nM; in assay [1], 12 nM.
As to `CCCc1cncc(Nc2cc(COc3ccc(NC(=O)Nc4cc(C(C)(C)C)nn4-c4ccc(C)cc4)c4ccccc34)ccn2)n1` [Example 172, 1-(3-(tert-butyl)-1-(p-tolyl)-1H-pyrazol-5-yl)-3-(4-((2-((6-propylpyrazin-2-yl)amino)pyridin-4-yl)methoxy)naphthalen-1-yl) urea], the IC50 came to 169 nM on p38MAPKγ (MAPK12) and 31 nM in assay [1].
As for `CCc1ccc(-n2nc(C(C)(C)C)cc2NC(=O)Nc2ccc(OCc3ccnc(Nc4cncc(CC)n4)c3)c3ccccc23)cc1` [Example 173, 1-(3-(tert-butyl)-1-(4-ethylphenyl)-1H-pyrazol-5-yl)-3-(4-((2-((6-ethylpyrazin-2-yl)amino)pyridin-4-yl)methoxy)naphthalen-1-yl) urea], the values for the IC50 (at p38MAPKγ (MAPK12); in assay [1]) were 571 nM and 54 nM, respectively.
On to `CC(C)(C)c1cc(NC(=O)Nc2ccc(OCc3ccnc(Nc4cnccn4)c3)c3ccccc23)n(-c2cccc(CO)c2)n1` [Example 174, 1-(3-(tert-butyl)-1-(3-(hydroxymethyl)phenyl)-1H-pyrazol-5-yl)-3-(4-((2-(pyrazin-2-ylamino)pyridin-4-yl)methoxy)naphthalen-1-yl)urea], for which the IC50 was 56 nM on p38MAPKγ (MAPK12) and 7.7 nM in assay [1].
On to `CCc1cncc(Nc2cc(COc3ccc(NC(=O)Nc4cc(C(C)(C)C)nn4-c4cccc(Cl)c4)c4ccccc34)ccn2)n1` [Example 175, 1-(3-(tert-butyl)-1-(3-chlorophenyl)-1H-pyrazol-5-yl)-3-(4-((2-((6-ethylpyrazin-2-yl)amino)pyridin-4-yl)methoxy)naphthalen-1-yl)urea], for which the IC50 was more than 15500 nM at p38MAPKγ (MAPK12) and 38 nM in assay [1].
Consider `Cc1ccc(-n2nc(C(C)(C)C)cc2NC(=O)Nc2ccc(OCc3ccnc(Nc4cnc(C(=O)N5CCC(F)CC5)cn4)c3)c3ccccc23)cc1` [Example 176, 1-(3-(tert-butyl)-1-(p-tolyl)-1H-pyrazol-5-yl)-3-(4-((2-((5-(4-fluoropiperidine-1-carbonyl)pyrazin-2-yl)amino)pyridin-4-yl)methoxy)naphthalen-1-yl)urea], for which the IC50 on p38MAPKγ (MAPK12) was 458 nM; in assay [1], 36 nM.
In the same order, the values of `COc1ccc(-n2nc(C(C)(C)C)cc2NC(=O)Nc2ccc(OCc3ccnc(Nc4cnc(CO)cn4)c3)c3ccccc23)cn1` [Example 177, 1-(3-(tert-butyl)-1-(6-methoxypyridin-3-yl)-1H-pyrazol-5-yl)-3-(4-((2-((5-(hydroxymethyl)pyrazin-2-yl)amino)pyridin-4-yl)methoxy)naphthalen-1-yl) urea] are 81 nM and 5.2 nM.
Regarding `COc1cccc(-n2nc(C(C)(C)C)cc2NC(=O)Nc2ccc(OCc3ccnc(Nc4cnc(CO)cn4)c3)c3ccccc23)c1` [Example 178, 1-(3-(tert-butyl)-1-(3-methoxyphenyl)-1H-pyrazol-5-yl)-3-(4-((2-((5-(hydroxy-methyl)pyrazin-2-yl)amino)pyridin-4-yl)methoxy)naphthalen-1-yl)urea], the IC50 turned out to be 36 nM on p38MAPKγ (MAPK12) and 5.8 nM in assay [1].
For the compound `Cc1ncc(Nc2cc(COc3ccc(NC(=O)Nc4cc(C(C)(C)C)nn4-c4cccc(Cl)c4)c4ccccc34)ccn2)nc1C` [Example 179, 1-(3-(tert-butyl)-1-(3-chloro-phenyl)-1H-pyrazol-5-yl)-3-(4-((2-((5,6-dimethyl-pyrazin-2-yl)amino)pyridin-4-yl)methoxy)naphthalen-1-yl)urea], the results for the IC50 (on p38MAPKγ (MAPK12); in assay [1]) were more than 15500 nM and 46 nM, respectively.
